Test results: patent US11326174B2, “Engineered yeast strains enabling anaerobic xylose fermentation decoupled from microbial growth” (Wisconsin Alumni Research Foundation, priority 2018, dated 2022)
Entries after “also recorded” stand apart in the source; their conditions may differ.

Columns and labels:
tpk2^as = biological target: T1, tpk2^as (Saccharomyces cerevisiae, UniProt P06245, M147G); assay: Inhibition of analog-sensitive PKA in Y133 tpk1Δtpk3Δtpk2^as during anaerobic growth on xylose; format: cell-based; conditions: 10 μM 1-NM-PP1 added after 17 hours
T1 construct: tpk2as repair templates were generated by PCR of the whole ORF of tpk2as; endogenous in cells; host or cells: S. cerevisiae Y133 tpk1Δtpk3Δtpk2^as; allele placed at the chromosomal TPK2 locus by CRISPR/Cas9 editing
T1 sequence (P06245 whole entry M147G): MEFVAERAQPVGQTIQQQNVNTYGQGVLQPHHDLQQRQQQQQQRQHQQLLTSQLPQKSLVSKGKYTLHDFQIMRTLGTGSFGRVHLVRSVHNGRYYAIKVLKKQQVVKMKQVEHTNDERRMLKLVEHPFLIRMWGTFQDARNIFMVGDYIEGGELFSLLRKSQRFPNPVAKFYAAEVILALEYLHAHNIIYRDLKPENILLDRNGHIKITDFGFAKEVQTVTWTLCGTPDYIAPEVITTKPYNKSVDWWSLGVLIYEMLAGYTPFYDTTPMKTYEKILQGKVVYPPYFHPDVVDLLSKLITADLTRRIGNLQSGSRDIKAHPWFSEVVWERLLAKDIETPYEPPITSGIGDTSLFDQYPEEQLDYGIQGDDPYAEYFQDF
Description: Y133 tpk1Δtpk3Δtpk2^as was generated using CRISPR/Cas9-mediated genome editing. TPK1 and TPK3 were deleted in Y133 independently and verified by PCR. sgRNA sequence ([…]) that targeted the location within TPK2 to be replaced was cloned into the pXIPHOS vector using Not1 (GenBank accession MG897154), which contains the constitutive RNR2 promoter driving the Cas9 gene and NatMX resistance gene, using gapped plasmid repair using HiFi DNA Assembly Master Mix from NEB. tpk2as repair templates were generated by PCR of the whole ORF of tpk2as from a strain containing mutants of the TPK genes that are sensitive to the ATP-analogue inhibitor 1-NM-PP1 (TPK1 M164G, TPK2 M147G, TPK3 M165G). Purified repair templates were co-transformed at a 20-fold molar excess with the pXIPHOS-TPK2 sgRNA plasmid into Y133 tpk1Δtpk3Δ strain. Colonies resistant to nourseothricin were restreaked onto YPD two times to remove the plasmid (and were verified to now be sensitive to nourseothricin) and tpk2as presence was verified by sequencing. Y133 tpk1Δtpk3Δtpk2^as was grown in xylose anaerobically for 17 hours at which point 10 μM 1-NM-PP1 or DMSO control was added to the cultures.

PKA = PKA activity assay: in vitro phosphorylation of a PKA substrate by cell lysate; format: biochemical, Saccharomyces cerevisiae; conditions: 50 μM H-89
Procedure: PKA activity assay. Measurement of PKA activity was performed on lysed cells using the PKA Kinase Activity Assay Kit from ABCAM. Cultures were grown anaerobically in xylose for three doublings (to OD˜0.5), at which 10 mL of cells were collected by centrifugation for 3 minutes at 3000 rpm, in preparation for lysis. Supernatant was removed under anaerobic conditions and the cells were resuspended in 1 mL of SB buffer (1 M sorbitol, 20 mM Tris HCl, pH 7.4) with 300 units of zymolyase (Amsbio) and 10 μL of protease inhibitor cocktail IV (Millipore). Cells were incubated for 10 minutes at 30° C. anaerobically. Cells were collected by […] for 5 minutes at 350×g and washed 1× with SB buffer under anaerobic conditions. Cells were resuspended in 750 μL HLB buffer (10 mM Tris HCl, pH 7.4, 10 mM NaCl, 3 mM MgCl2, 0.3% (vol/vol) NP-40, 10% (vol/vol) glycerol) with 10 μL protease inhibitor cocktail IV and incubated on ice for 10 minutes, anaerobically. […] Lysis was verified using microscopy and total protein abundance was determined using a Bradford assay. […] The reaction was detected using a TECAN Infinite 200 Pro with a wavelength of 450 nm. […] Relative PKA activity was calculated by subtracting […] to remove background, followed by normalization to total protein abundance for each sample. […]

Y128 = assay: Inhibition of growth using hydroxyurea during anaerobic growth on xylose; format: cell-based, Saccharomyces cerevisiae; conditions: 400 mM hydroxyurea added after 17 hours
Procedure: Inhibition of growth using hydroxyurea. Growth inhibition was performed using 400 mM hydroxyurea, added after 17 hours of anaerobic growth in xylose. Before and after growth inhibition, OD600 as well as sugar and ethanol concentrations were measured as above.

CC(C)(C)n1nc(Cc2cccc3ccccc23)c2c(N)ncnc21 [Strain 1-NM-PP1]
Effect on growth and fermentation during anaerobic xylose utilization (tpk2^as): rapidly inhibited growth and fermentation

O=S(=O)(NCCNC/C=C/c1ccc(Br)cc1)c1cccc2cnccc12 [Strain H-89]
Effect on phosphorylation of a PKA substrate in vitro (PKA; lysate from Y128 grown anaerobically on xylose): blocked
Effect on phosphorylation of a PKA target in vitro (PKA; lysate from Y184 bcy1Δ grown anaerobically on xylose): blocked

NC(=O)NO [hydroxyurea]
Effect on anaerobic xylose utilization (Y128): does not promote anaerobic xylose utilization; also recorded: halted xylose utilization
Effect on growth (OD600) (Y128): inhibits growth
